# Measured values from patent publication US20150307841A1, “Composition for Promoting Differentiation and Proliferation of Neural Stem Cell and Neural Precursor Cell” (priority 2014, published 2015).
# “Also recorded” adds a separate entry of the source.
# Assays:
# Assay type in all cases: in vivo, rat
# [1] = tested on: memory-deficient model rats; assay: Y-maze test in ibotenic acid-induced memory-deficient model rats
# Excerpt: (§1) Ibotenic acid is a neurotoxin present in mushrooms and is known to cause powerful damage to neurons when directly injected into the brain of mice or rats. In particular, because senile plaques and neuronal cell death appear in the entorhinal cortex and hippocampus in early Alzheimer's disease patients (Ueki A et al. J Neurol Sci, 1994), memory-deficient model rats were generated by injecting ibotenic acid (IBO) into the entorhinal cortex. The surgical protocol followed Heo H et al.'s method (J Ethnopharmacol, 2009) with some modifications. In the model animals, the injection of ibotenic acid induces cell death not only in the entorhinal cortex but also in the CA and DG regions of the hippocampus and impairs hippocampus-related learning and memory abilities.
# (§2) The 6-week-old rats were anesthetized with equithesin (350 mM pentobarbital sodium, 250 mM chloral hydrate, 85 mM MgSO4 and 40% propylene glycol in 10% ethanol, 2 mL/kg). To induce cell death in the dentate gyrus and hippocampus in addition to the entorhinal cortex, ibotenic acid (1.5 μL per animal, 1 mg/mL) was injected into the entorhinal cortex as follows. The rat was placed in a stereotaxic device (Stoelting Co., Wood Dale, Ill., USA) with the incisor bar 3.4 mm below the interaural line. The needle was positioned 10° right to the midsaggital plane. Then, ibotenic acid was injected at 3 locations into the entorhinal cortex and medial entorhinal cortex at a rate of 0.35 μL/min (first, AP: 8.4 mm, ML: 4.8 mm, DV: 4.6-4.8 mm; second, AP: 8.4 mm, ML: 4.8 mm, DV: 2.6-2.8 mm; third, AP: 8.8 mm, ML: 3.65 mm, DV: 4.8 mm). […]
# The maze was made of black-colored acryl and was positioned at equal angles. […] Arm entry was recorded when the hind paws were completely placed in the arm. Consecutive entry into 3 arms in an alternative order was defined as successive entries on overlapping triplet sets, and alternation percentage was calculated as the ratio of actual to possible alternations (defined as the total number of arm entries minus 2), multiplied by 100. […]
# [2] = tested on: memory-deficient model rats; assay: Morris water maze test in memory-deficient model rats; conditions: Experimental Example 2
# Excerpt: as §1
# as §2, with “plane.” for “plane. Then, ibotenic acid was injected at 3 locations into the entorhinal cortex and medial entorhinal cortex at a rate of 0.35 μL/min (first, AP: 8.4 mm, ML: 4.8 mm, DV: 4.6-4.8 mm; second, AP: 8.4 mm, ML: 4.8 mm, DV: 2.6-2.8 mm; third, AP: 8.8 mm, ML: 3.65 mm, DV: 4.8 mm).”
# For each trial, the rat was allowed to swim for a maximum of 60 seconds to find the platform and to rest for 1 minute on the platform upon success. […] The swimming time and length of the trial were recorded and monitored using a video camera. […] The captured video images were analyzed by a video tracking system (EthoVision Water Maze program, Noldus Information Technology, Wageningen, the Netherlands). The analyzed information included the swimming time in the target quadrant and the number of virtual platform crossings to find the removed platform. […]
# [3] = tested on: GAD67-, VGluT1-, ChAT-positive neurons and OX42 reactive microglia in the hippocampus; assay: Immunohistochemical analysis of GAD67, VGluT1, ChAT, OX42 in hippocampus (Experimental Example 1)
# Experimental: Immunostaining was carried out using antibodies against VGluT1 (diluted 1:500, Chemicon), ChAT (1:500, Chemicon), GFAP (1:1,000, Chemicon), tyrosine hydroxylase (TH, 1:500, Chemicon) and OX42 (CD11b/c, 1:250, Serotec) as primary antibodies instead of the anti-BrdU antibodies used in (4). The other process was the same as in (4), except that incubation was performed at 37° C. for 30 minutes in 2 N HCl.
# In the immunohistochemical analysis, the number of the cells immnunostained against each antibody was counted from 5 or 6 hippocampal coronal sections. For each staining analysis, every fifth cryosections of the hippocampal region of brain tissues (AP: bregma −4.5 to −4.3 mm) were taken for immunostaining. The number of the immnunostained cells was represented as an average of number of cells in the hippocampal region of one brain slice.
# The number of the VGluT1- and GAD-positive cells in the brain slice samples 1 week and 4 weeks after the administration of soyasaponin I was presented per microscopic field (×400-VGluT1, ×800-GAD67) and the number of the ChAT-positive cells was presented per each hippocampal region (10-12 confocal laser microscopic fields). 5-11 animals were used per group. Western blotted membranes were analyzed using the multi-gauge, bio-imaging program on LAS-4000 Mini (Fujifilm Life Science, Stamford, Conn., USA). Densitometeric analysis of the expression ratios of VGluT1/β-actin, GAD65/67/β-actin and ChAT/β-actin was normalized to the vehicle group.
smiles,measurement,setting,value
C[C@@H]1O[C@@H](O[C@H]2[C@H](O[C@H]3[C@H](O[C@H]4CC[C@@]5(C)[C@@H](CC[C@]6(C)[C@@H]5CC=C5[C@@H]7CC(C)(C)C[C@@H](O)[C@]7(C)CC[C@]56C)[C@@]4(C)CO)O[C@H](C(=O)O)[C@@H](O)[C@@H]3O)O[C@H](CO)[C@H](O)[C@@H]2O)[C@H](O)[C@H](O)[C@H]1O [soyasaponin I],Y-maze number of total entries,"[1]; 10 mg/kg oral, tests 2 weeks after administration (Experimental Example 2)",not significantly different
same,Y-maze spontaneous alterations (decreased memory of IBO group),"[1]; Experimental Example 1, tests immediately after administration, group 1 (Soya-I)",improved
same,"Y-maze spontaneous alterations, increase compared with the non-soyasaponin I-administered group (IBO)","[1]; soyasaponin I 10 mg/kg oral, tests 2 weeks after administration (Experimental Example 2)",78.57%
same,Morris water maze number of crossings across the target probe,[2]; probe trial session,recovery to almost those of the normal group
same,Morris water maze swimming time in the target quadrant,[2]; probe trial session,recovery to almost those of the normal group
same,Morris water maze escape latency time compared to the ibotenic acid-administered group,"[2]; training trial, third and fourth days",decreased
same,Number of VGluT1-positive cells,[3]; 10 mg/kg oral,57.33±2.43 cells per microscopic field
same,Number of VGluT1-positive cells compared to the IBO group,"[3]; 5, 10, 20 mg/kg oral",increased up to the level of the normal group
same,OX42 (reactive microglia) intensity normalized to the normal group,"[3]; DG and CA1 regions, 5, 10, 20 mg/kg",decreased in a dose-dependent manner; also recorded: decreased again to the level of the normal model
